Assay results from patent US10131652B2, “Pyrimidinyloxy benzene derivatives as herbicides” (E. I. DU PONT DE NEMOURS AND COMPANY, priority 2014, dated 2018).

Legend:
Type in all cases: in vivo
[1] = tested on: small-flower umbrella sedge (Cyperus difformis); assay: Test C flooded paddy test plant response; conditions: Flood, 250 g ai/ha; scale of 0 to 100 where 0 is no effect and 100 is complete control; 13 to 15 days
Method: (§1) Plant species in the flooded paddy test selected from rice (Oryza sativa), small-flower umbrella sedge (Cyperus difformis), ducksalad (Heteranthera limosa), and bamyardgrass (Echinochloa crus-galli) were grown to the 2-leaf stage for testing. At time of treatment, test pots were flooded to 3 cm above the soil surface, treated by application of test compounds directly to the paddy water, and then maintained at that water depth for the duration of the test. Treated plants and controls were maintained in a greenhouse for 13 to 15 days, after which time all species were compared to controls and visually evaluated. Plant response ratings, summarized in Table C, are based on a scale of 0 to 100 where 0 is no effect and 100 is complete control. A dash (-) response means no test result.

rice (Oryza sativa) = assay: Test C flooded paddy test plant response; conditions: Flood, 250 g ai/ha; scale of 0 to 100 where 0 is no effect and 100 is complete control; 13 to 15 days
Method: as §1

[2] = tested on: ducksalad (Heteranthera limosa); assay: Test C flooded paddy test plant response; conditions: Flood, 250 g ai/ha; scale of 0 to 100 where 0 is no effect and 100 is complete control; 13 to 15 days
Method: as §1

[3] = tested on: barnyardgrass (Echinochloa crus-galli); assay: Test C flooded paddy test plant response; conditions: Flood, 250 g ai/ha; scale of 0 to 100 where 0 is no effect and 100 is complete control; 13 to 15 days
Method: as §1

[4] = tested on: galium (catchweed bedstraw, Galium aparine); assay: Test B postemergence plant response; conditions: 0 to 100 scale, 0 no effect, 100 complete control
Procedure, shortened: (§2)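 Injury was assessed visually about 10 days after treatment, scored from 0 (no effect) to 100 (complete control) by comparison with untreated controls. Test chemicals had been applied postemergence to potted plants at the one- to two-leaf stage, grown in loam soil and sand in a greenhouse.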

[5] = tested on: blackgrass (Alopecurus myosuroides); assay: Test B postemergence plant response; conditions: 0 to 100 scale, 0 no effect, 100 complete control
Procedure, shortened: as §2

[6] = tested on: wheat (Triticum aestivum); assay: Test B pre-/postemergence plant response; conditions: 0 to 100 scale, 0 no effect, 100 complete control
Excerpt: (§3) Seeds of plant species selected from bamyardgrass (Echinochloa crus-galli), kochia (Kochia scoparia), ragweed (common ragweed, Ambrosia elatior), Italian ryegrass (Lolium multiflorum), large (Lg) crabgrass (Digitaria sanguinalis), giant foxtail (Setaria faberii), momingglory (Ipomoea spp.), pigweed (Amaranthus retroflexus), velvetleaf (Abutilon theophrasti), wheat (Triticum aestivum), and corn (Zea mays) were planted into a blend of loam soil and sand and treated preemergence with a directed soil spray using test chemicals formulated in a non-phytotoxic solvent mixture which included a surfactant. At the same time, plants selected from these crop and weed species and also blackgrass (Alopecurus myosuroides), and galium (catchweed bedstraw, Galium aparine) were planted in pots containing the same blend of loam soil and sand and treated with postemergence applications of test chemicals formulated in the same manner. Plants ranged in height from 2 to 10 cm and were in the one- to two-leaf stage for the postemergence treatment. Treated plants and untreated controls were maintained in a greenhouse for approximately 10 days, after which time all treated plants were compared to untreated controls and visually evaluated for injury. Plant response ratings, summarized in Table B, are based on a 0 to 100 scale where 0 is no effect and 100 is complete control. A dash (-) response means no test result.

[7] = tested on: Italian ryegrass (Lolium multiflorum); assay: Test B pre-/postemergence plant response; conditions: for Ryegrass, Italian plant response rating: 0 to 100 scale (0 no effect, 100 complete control)
Excerpt: as §3

corn (Zea mays) = assay: Test B pre-/postemergence plant response; conditions: 0 to 100 scale, 0 no effect, 100 complete control
Excerpt: as §3

kochia (Kochia scoparia) = assay: Test B pre-/postemergence plant response; conditions: for Kochia plant response rating: 0 to 100 scale (0 no effect, 100 complete control)
Excerpt: as §3

[8] = tested on: giant foxtail (Setaria faberii); assay: Test B pre-/postemergence plant response; conditions: for Foxtail, Giant plant response rating: 0 to 100 scale (0 no effect, 100 complete control)
Excerpt: as §3

[9] = tested on: ragweed (common ragweed, Ambrosia elatior); assay: Test B pre-/postemergence plant response; conditions: for Ragweed plant response rating: 0 to 100 scale (0 no effect, 100 complete control)
Excerpt: as §3

[10] = tested on: barnyardgrass (Echinochloa crus-galli); assay: Test B pre-/postemergence plant response; conditions: for Barnyardgrass plant response rating: 0 to 100 scale (0 no effect, 100 complete control)
Excerpt: as §3

[11] = tested on: pigweed (Amaranthus retroflexus); assay: Test B pre-/postemergence plant response; conditions: for Pigweed plant response rating: 0 to 100 scale (0 no effect, 100 complete control)
Excerpt: as §3

[12] = 31 g ai/ha, Postemergence, 0 to 100 scale, 0 no effect, 100 complete control
[13] = 31 g ai/ha, Preemergence, 0 to 100 scale where 0 is no effect and 100 is complete control
[14] = 125 g ai/ha, postemergence, 0 to 100 scale, 0 no effect, 100 complete control
[15] = Preemergence, 125 g ai/ha, 0 to 100 scale where 0 is no effect and 100 is complete control

SMILES	Sedge, Umbrella plant response rating [1]	Rice plant response rating (rice (Oryza sativa))	Ducksalad plant response rating [2]	Barnyardgrass plant response rating [3]	Plant response rating, Galium ([4]; 31 g ai/ha, Postemergence)	Plant response rating, Galium ([4]; 125 g ai/ha, postemergence)	Plant response rating, Blackgrass ([5]; 31 g ai/ha, Postemergence)	Plant response rating, Blackgrass ([5]; 125 g ai/ha, postemergence)	Plant response rating, Wheat ([6]; 31 g ai/ha, Postemergence)	Plant response rating, Wheat ([6]; 125 g ai/ha, postemergence)	Plant response rating, Ryegrass, Italian [7, 12]	Plant response rating, Ryegrass, Italian [7, 14]	Plant response rating, Corn (corn (Zea mays); 31 g ai/ha, Postemergence)	Plant response rating, Corn (corn (Zea mays); 125 g ai/ha, postemergence)	Plant response rating, Kochia (kochia (Kochia scoparia); [12])	Plant response rating, Kochia (kochia (Kochia scoparia); [14])	Plant response rating, Kochia (kochia (Kochia scoparia); [15])	Plant response rating, Foxtail, Giant [8, 12]	Plant response rating, Foxtail, Giant [8, 14]	Plant response rating, Foxtail, Giant [8, 15]	further results
COc1cccc(Oc2ncc(Cl)cn2)c1-c1cc(C)no1 [Compound 110]	60	0	30	0	20	70	0	40	0	0	0	0	0	10	10	50	0	0	70	70	Plant response rating, Ryegrass, Italian [7, 13]: 0; Plant response rating, Kochia (kochia (Kochia scoparia); [13]): 0; Plant response rating, Foxtail, Giant [8, 13]: 0; Plant response rating, Ragweed [9, 12]: 30; Plant response rating, Ragweed [9, 13]: 0; Plant response rating, Ragweed [9, 14]: 40; Plant response rating, Barnyardgrass [10, 12]: 0; Plant response rating, Barnyardgrass [10, 13]: 0; Plant response rating, Barnyardgrass [10, 14]: 50; Plant response rating, Barnyardgrass [10, 15]: 40; Plant response rating, Pigweed [11, 12]: 10; Plant response rating, Pigweed [11, 13]: 10; Plant response rating, Pigweed [11, 14]: 30
CCn1nc(C(F)(F)F)cc1-c1c(C#N)cccc1Oc1ncc(Cl)cn1 [Compound 89]	80	0	30	0	10	50	10	20	0	0	0	0	10	30	50	70	0	10	40	90	Ryegrass, Italian plant response rating ([7]; Preemergence, 31 g ai/ha): 0; Plant response rating, Ryegrass, Italian [7, 15]: 0; Kochia plant response rating (kochia (Kochia scoparia); Preemergence, 31 g ai/ha): 0; Foxtail, Giant plant response rating ([8]; Preemergence, 31 g ai/ha): 40; Plant response rating, Ragweed [9, 12]: 10; Plant response rating, Ragweed [9, 14]: 10; Ragweed plant response rating ([9]; Preemergence, 31 g ai/ha): 0; Plant response rating, Ragweed [9, 15]: 0; Plant response rating, Barnyardgrass [10, 12]: 10; Plant response rating, Barnyardgrass [10, 14]: 30; Barnyardgrass plant response rating ([10]; Preemergence, 31 g ai/ha): 10; Plant response rating, Barnyardgrass [10, 15]: 70; Plant response rating, Pigweed [11, 12]: 60; Plant response rating, Pigweed [11, 14]: 90; Pigweed plant response rating ([11]; Preemergence, 31 g ai/ha): 100; Plant response rating, Pigweed [11, 15]: 100
COc1cccc(Oc2ncc(Cl)cn2)c1-c1cc(C(F)(F)F)on1 [Compound 105]	70	35	40	45	70	100	70	100	0	10	0	10	10	20	30	70	10	40	80	100	Ryegrass, Italian plant response rating ([7]; Preemergence, 31 g ai/ha): 0; Plant response rating, Ryegrass, Italian [7, 15]: 20; Kochia plant response rating (kochia (Kochia scoparia); Preemergence, 31 g ai/ha): 0; Foxtail, Giant plant response rating ([8]; Preemergence, 31 g ai/ha): 70; Plant response rating, Ragweed [9, 12]: 10; Plant response rating, Ragweed [9, 14]: 30; Ragweed plant response rating ([9]; Preemergence, 31 g ai/ha): 0; Plant response rating, Ragweed [9, 15]: 0; Plant response rating, Barnyardgrass [10, 12]: 10; Plant response rating, Barnyardgrass [10, 14]: 70; Barnyardgrass plant response rating ([10]; Preemergence, 31 g ai/ha): 20; Plant response rating, Barnyardgrass [10, 15]: 90; Plant response rating, Pigweed [11, 12]: 90; Plant response rating, Pigweed [11, 14]: 100; Pigweed plant response rating ([11]; Preemergence, 31 g ai/ha): 100; Plant response rating, Pigweed [11, 15]: 100
